This is an account of results in patent US6545033B1, “Fused 1-(2,6-dichloro-4-trifluoromethylphenyl)-pyrazoles, the synthesis thereof and the use thereof as pesticides” (3-Dimensional Pharmaceuticals, Inc., priority 1999, dated 2003).

Structures are written as SMILES.

In test [1] the test system is houseflies (Musca domestica). As to the kind of experiment: In vivo housefly contact assay. The settings on record: contact in coated glass test tube, about 24 hours; mM = concentration of the DMSO solution, about 1 μL applied. The protocol: This example describes an in vivo assay to screen compounds for their ability to kill houseflies via contact. Newly emerged houseflies (Musca domestica, available from Rincon-Vitova Insectaries, Inc., Ventura, Calif.) were sedated with carbon dioxide gas, collected in 50 mL polypropylene conical tubes containing filter paper saturated with 10% (w/w) sucrose in water, and allowed to feed at room temperature for about 2-4 hours. Test compounds were dissolved as in dimethylsulfoxide (DMSO) at concentrations ranging from about 0.05 mM to about 100 mM. About 1 μL of dissolved test compound and about 100 μL of isopropanol were dispensed into the bottom of a 9 mL screw-top glass test tube. Positive control test tubes were prepared in the same manner except that no test compounds were dissolved in the DMSO. Each test tube was rolled to coat the sides with the chemical solution, and allowed to air dry 24-48 hours. About 20 houseflies were sedated by refrigeration at 0-4° C. and transferred to each test tube. Each test tube was sealed with organdy cloth secured by an open top screw cap and laid horizontally in the dark. After about 24 hours, the healthy, moribund, and dead houseflies in each test tube were counted. The percentage of dead houseflies in each test tube was then calculated using the formula M=100(D−(FC/100))/(F−(FC/100)), in which M is the percentage of dead houseflies due to the addition of the test compound, D is the number of dead houseflies in the test tube, F is the total number of houseflies in the test tube, and C is the percentage of dead houseflies in the control test tubes.

Test [2] relates to cat fleas (Ctenocephalides felis), CO Fleas. Description: In vivo cat flea contact assay, CO fleas. The settings on record: contact with treated filter disk in vial, about 24-30 hours, mM = concentration of the DMSO solution, about 1 μL applied; for LC50: Ctenocephalides felis, topical, read-out: LD50 (mM), CO Fleas. The protocol:
(§1) This example describes an in vivo assay to screen compounds for their ability to kill cat fleas via contact.
(§2) Test compounds were dissolved in dimethylsulfoxide (DMSO) at concentrations ranging from about 0.05 mM to about 100 mM. About 1 μL of dissolved test compound was dispensed onto a 6 mm (diameter) GF/C filter disk (filter material available from Whatman Inc., Clifton, N.J.) in the bottom of a 4 mL screw-top glass vial and allowed to air dry 24-48 hours. Positive control vials were prepared in the same manner except that no test compounds were dissolved in the DMSO. About 20 newly emerged cat fleas (Ctenocephalides felis) were sedated by refrigeration at 0-4° C. and transferred to each vial. Each vial was sealed with a thin, perforated Teflon™ septum secured by an open top screw cap and held vertically in the dark. After about 24-30 hours, the healthy, moribund, and dead cat fleas in each vial were counted. The percentage of dead cat fleas in each vial was then calculated using the formula M=100(D−(FC/100))/(F−(FC/100)), in which M is the percentage of dead cat fleas due to the addition of the test compound, D is the number of dead cat fleas in the test vial, F is the total number of cat fleas in the test vial, and C is the percentage of dead cat fleas in the control vials.

Test [3] deals with cat fleas (Ctenocephalides felis), NC Fleas. As to the kind of experiment: In vivo cat flea contact assay, NC fleas. The settings on record: contact with treated filter disk in vial, about 24-30 hours; mM = concentration of the DMSO solution, about 1 μL applied. The protocol:
as §1, §2

Test [4] addresses Mouse Brain GABA Receptors. Description: In vitro assay of binding to mouse brain GABA receptors (3H-EBOB displacement, mouse brain membranes). The settings on record: displacement of 5.2 nM 3H-EBOB, about 45 min at about 24° C. On the procedure:
Mouse brains were obtained from carbon dioxide-asphyxiated Swiss-Webster mice, washed with phosphate-buffered saline, and used either fresh or after storage at −80° C. for up to 10 months. Unless specified, all preparation steps were performed at 0-4° C. For each preparation, 20 brains were suspended in about 40 mL of 0.32 M sucrose and homogenized for about 2 minutes, using a Tissumizer™ homogenizer equipped with a SDT-100EN probe (available from Tekmar-Dohrmann, Cincinnati, Ohio) running at 50% of its maximum speed. The extract was centrifuged for about 5 min at about 1000×g to pellet intact brain tissue. The supernatant was retained and the pellet washed with an additional 40 mL of 0.32 M sucrose and centrifuged at 1000×g for about 5 minutes. The 1000×g supernatants were combined and centrifuged at about 10,000×g for about 20 min to pellet membranes. The 10,000×g supernatant was discarded and the pellet was resuspended in about 20 mL of water containing 1 mM EDTA. The sample was dialyzed two times for about 3 hours each against about 3 L of water. The sample was then centrifuged at about 25,000×g for about 30 min to pellet the membranes. After centrifugation, the supernatant was discarded and the wet pellet recovered. The protein concentration of the pellet was determined by the Bio-Rad Protein Assay (available from Bio-Rad Laboratories, Hercules, Calif.) using bovine serum albumin as a standard. The membranes were aliquoted and stored at −80° C. for up to 6 months before use.
Mouse brain membranes were prepared as described above from dissected mouse brains. Test compounds were dissolved in dimethylsulfoxide (DMSO) at concentrations ranging from about 2 nM to about 100 mM. About 1 μL of a dissolved test compound was dispensed into a well of a 96-well polystyrene plate. About 100 μL of ice cold assay buffer (10 mM phosphate, 300 mM NaCl, pH 7.5) containing 5.2 nM 4′-Ethynyl-4-n-[2,3-^3H2]propylbicycloorthobenzoate (^3H-EBOB, 38 Ci/mmol, available from NEN Life Science Products, Boston, Mass.) was added to the well, followed by about 100 μL of ice cold assay buffer containing about 0.25-0.5 mg/mL mouse brain membranes. Control wells were prepared the same way except that the mouse brain membranes were omitted from the “negative” wells, and the test compounds were omitted from the “positive” wells. The samples were incubated for about 45 min at about 24° C. and then filtered on a 0.1% (w/v) polyethylenimine-soaked glass fiber Filtermat A (available from EG&G Wallac Inc., Gaithersburg, Md.) followed by four 100 mL rinses of cold assay buffer using a Harvester 96® cell harvester (available from Tomtec, Orange, Conn.). The filtermat was air dried and radioactivity bound to the filtermat was detected with either a 1450 MicroBeta® Trilux scintillation counter (available from EG&G Wallac Inc.) or a Topcount NXT™ scintillation counter (available from Packard Instrument Co., Meriden, Conn.) using standard methods.
Specific binding was considered to be the difference between total ^3H bound to the mouse brain membranes in the absence of any inhibitors and nonspecific ^3H bound to the mouse brain membranes upon the addition of 5 μM unlabeled EBOB. The average radioactivity contained in the “negative” wells was subtracted from each of the assay wells. […] Compounds that displaced ^3H-EBOB specifically bound to the mouse brain membranes were tested at 24-48 different final concentrations, varying from about 1 nM to about 125 μM, in order to determine the concentration at which 50% of the maximum inhibition due to the addition of that compound was observed (IC50). […]

A further test addresses T1, Housefly GABA receptors (Musca domestica, UniProt Q75NA5).
T1 sequence (Q75NA5 30-576): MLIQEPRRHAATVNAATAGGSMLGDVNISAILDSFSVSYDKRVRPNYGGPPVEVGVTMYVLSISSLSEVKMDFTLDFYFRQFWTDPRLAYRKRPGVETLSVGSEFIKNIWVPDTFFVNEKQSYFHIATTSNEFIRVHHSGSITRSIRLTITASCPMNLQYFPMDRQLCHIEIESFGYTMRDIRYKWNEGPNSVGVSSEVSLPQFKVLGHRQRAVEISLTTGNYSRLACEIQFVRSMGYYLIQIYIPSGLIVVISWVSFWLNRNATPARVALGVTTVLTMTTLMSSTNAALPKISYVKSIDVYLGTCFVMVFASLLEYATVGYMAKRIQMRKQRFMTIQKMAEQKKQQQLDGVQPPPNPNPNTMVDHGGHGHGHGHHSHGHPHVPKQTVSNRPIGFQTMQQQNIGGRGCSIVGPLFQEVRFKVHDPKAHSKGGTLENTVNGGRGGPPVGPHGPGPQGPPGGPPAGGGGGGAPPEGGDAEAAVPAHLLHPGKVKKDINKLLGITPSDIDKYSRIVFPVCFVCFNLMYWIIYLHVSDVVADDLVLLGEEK
Description: In vitro assay of binding to housefly GABA receptors (3H-EBOB displacement, housefly neuronal membranes). The settings on record: displacement of 5.2 nM 3H-EBOB, housefly head neuronal membranes, about 45 min at about 24° C.; read-out: IC50 (nM), Fly Head. The protocol:
Newly emerged houseflies (Musca domestica, available from Rincon-Vitova Insectaries, Inc., Ventura, Calif.) were sedated with carbon dioxide gas, collected in 50 mL polypropylene conical tubes, and immediately frozen by submersion in liquid nitrogen. Unless specified, all of the following work was performed at 0-4° C. After removal from liquid nitrogen, the tubes of frozen houseflies were shaken vigorously by hand to decapitate the houseflies. […] Contaminating wings were removed by holding a vacuum nozzle approximately 4 cm above the heads, and contaminating legs were separated from the heads by passage through a #15 mesh screen. All remaining debris were removed from the pool of heads using forceps. The purified heads were collected in 50 mL polypropylene conical tubes and stored in liquid nitrogen until processed further.
About 13 g of purified housefly heads were suspended in about 65 mL of 10% sucrose buffer (10% sucrose (w/w) in 10 mM Tris, pH 7.5). The heads were homogenized for about 1 minute, using a Tissumizer™ homogenizer equipped with a SDT-100EN probe (available from Tekmar-Dohrmann, Cincinnati, Ohio) running at 70% of its maximum speed. The extract was further homogenized by about 5 passes through a 40 mL Dounce tissue grinder. The extract was then centrifuged at about 500×g for about 5 minutes to pellet large debris. The supernatant was collected; the pellet was washed with an additional 65 mL of 10% sucrose buffer and centrifuged at 500×g for about 5 minutes. The second supernatant was collected and combined with the first supernatant, and the pool was filtered through a 100μ CellMicroSieve™ mesh to remove residual debris (available from BioDesign of New York, Carmel, N.Y.).
Neuronal membranes containing active GABA receptors were collected via sucrose density centrifugation by the following method. About 8 mL of 35% sucrose buffer (35% sucrose (w/w) in 10 mM Tris, pH 7.5), were dispensed into each of six 38 mL ultracentrifuge tubes. These layers were overlaid with about 8 mL of 20% sucrose buffer (20% sucrose (w/w) in 10 mM Tris, pH 7.5), and finally overlaid with about 20 mL of filtered extract supernatant. The tubes were centrifuged at about 120,000×g for about 100 min at 4° C. After centrifugation, the 10% sucrose layer and most of the 20% sucrose layer were removed by aspiration. The membranes at the interface of the 20% sucrose and 35% sucrose layers were collected, pooled, diluted with 10% sucrose buffer, and centrifuged at about 120,000×g for about 40 min at 4° C. After centrifugation, the supernatant was discarded, and the pellets resuspended in about 6.5 mL of assay buffer (10 mM phosphate, 300 mM NaCl, pH 7.5) using a 10 mL Potter-Elvehjem tissue grinder with a Teflon® pestle. Protein concentration was determined by the Bio-Rad Protein Assay (available from Bio-Rad Laboratories, Hercules, Calif.) using bovine serum albumin as a standard. The membranes were aliquoted and stored in liquid nitrogen for up to 2 months before use.
Housefly neuronal membranes were prepared as described above from housefly heads. Test compounds were dissolved in dimethylsulfoxide (DMSO) at concentrations ranging from about 2 nM to about 100 mM. About 1 μL of a dissolved test compound was dispensed into a well of a 96-well polystyrene plate. About 100 μL of ice cold assay buffer (10 mM phosphate, 300 mM NaCl, pH 7.5) containing 5.2 nM 4′-Ethynyl-4-n-[2,3-^3H2]propylbicycloorthobenzoate (^3H-EBOB, 38 Ci/mmol, available from NEN Life Science Products, Boston, Mass.) was added to the well, followed by about 100 μL of ice cold assay buffer containing about 0.5-1.0 mg/mL housefly neuronal membranes. Control wells were prepared the same way except that the housefly neuronal membranes were omitted from the “negative” wells, and the test compounds were omitted from the “positive” wells. […]

As for `O=S1(=O)Cc2cn(-c3c(Cl)cc(C(F)(F)F)cc3Cl)nc2C1` [3″, 2-[2,6-Dichloro-4-(trifuoromethyl)phenyl]-4,6-dihydrothieno-[3,4-c]pyrazole-5,5-dione], the “LD50 (mM), Flies” value in test [1] is recorded as 5 mM. Besides, the “LD50 (mM), CO Fleas” value in test [2] is given as >100 mM. The “LD50 (mM), NC Fleas” value in test [3] is recorded as >100 mM.
Turning to `CC1(O)c2cn(-c3c(Cl)cc(C(F)(F)F)cc3Cl)nc2CC1F` (stereo not shown) [Compound 57, 2-[2,6-Dichloro-4-(trifluoromethyl)phenyl]-5-fluoro-4-methyl-2,4,5,6-tetrahydrocyclopenta[c]pyrazol-4-ol], the IC50 in test [4] stood at 25000 nM. For the same molecule, in test [2], the LC50 amounted to 3.8 mM.
For `FC(F)(F)c1cc(Cl)c(-n2cc3c(n2)CCC3(F)F)c(Cl)c1` [Compound 61, 2-[2,6-dichloro-4-(trifluoromethyl)phenyl]-4,4-difluoro-2,4,5,6-tetrahydrocyclopenta[c]pyrazole], in that order: 1000 nM and 5 mM.
Consider `CC1(O)c2cn(-c3c(Cl)cc(C(F)(F)F)cc3Cl)nc2C(F)C1F` (stereo not shown) [Compound 88, 2-[2,6-Dichloro-4-(trifluoromethyl)phenyl]-5,6-difluoro-4-methyl-2,4,5,6-tetrahydrocyclopenta[c]pyrazol-4-ol], for which the IC50 at Housefly GABA receptors worked out at 350 nM. Moreover, the LC50 in test [2] is 5 mM.
Take `FC1c2nn(-c3c(Cl)cc(C(F)(F)F)cc3Cl)cc2C(F)(F)C1F` (stereo not shown) [Compound 89, 2-[2,6-Dichloro-4-(trifluoromethyl)phenyl]-4,4,5,6-tetrafluoro-2,4,5,6-tetrahydrocyclopenta[c]pyrazole]: the IC50 in test [4] stood at 180 nM. Besides, in test [2], the LC50 was < 0.5 mM.
As for `FC(F)(F)c1cc(Cl)c(-n2cc3c(n2)CC(F)(F)C3(F)F)c(Cl)c1` [Compound 92, 2-[2,6-Dichloro-4-(trifluoromethyl)phenyl]-4,4,5,5-tetrafluoro-2,4,5,6-tetrahydrocyclopenta[c]pyrazole], the half-inhibitory concentration (IC50) in test [4] worked out at 60 nM. The LC50 in test [2] was < 0.5 mM.
